Among the test systems are A498; COLO 205; DLD-1; EKVX; HCC 2998; HL-60; Hs-578T; KM12; LOX IMVI; MDA-MB-231; MDA-MB-435; MOLT-4; Malme-3M; NCI-H23; NCI/ADR-RES; OVCAR-5; RPMI-8226; SK-MEL-28; U-251; UACC-62.
Common to all, as to assay: NCI anticancer screen, dose series, 48 h

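Step 1: Grow cells in 96-well plates. Step 2: Expose to compound for 48 hours at 5 concentrations. Step 3: Interpolate endpoints linearly; if unreached, use highest concentration. GI50 marks 50% less growth.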 Calls of active or inactive are those of the source. No stated cut-off is given here; in the data, active = GI50 up to about 1.1 µM and inactive = higher.

In the case of `O=C(c1ccccc1)c1nc2ccc(Cl)cc2cc1C(Br)Br`, the GI50 is 1.79 µM (inactive) with A498; 0.344 µM (active) in the assay with COLO 205; 0.203 µM (active) with DLD-1; 0.493 µM (active) with EKVX; 0.316 µM (active) in the assay on HCC 2998; 0.222 µM (active) in the assay on HL-60. Moreover, the GI50 is 0.193 µM (active) in the assay with Hs-578T; 0.34 µM (active) in the assay on KM12; 1.47 µM (inactive) in the assay with LOX IMVI; 0.0685 µM (active) in the assay with MDA-MB-231; 0.282 µM (active) in the assay with MDA-MB-435; 0.678 µM (active) with MOLT-4. The GI50 was 1.6 µM (inactive) in the assay with Malme-3M; 0.304 µM (active) in the assay with NCI-H23; 0.161 µM (active) in the assay with NCI/ADR-RES; 0.519 µM (active) in the assay on OVCAR-5; 0.229 µM (active) in the assay on RPMI-8226; 0.261 µM (active) with SK-MEL-28. Further, the GI50 is 0.192 µM (active) with U-251 and 0.569 µM (active) in the assay with UACC-62.
On to `COc1ccccc1/C=C1\CCC(CNc2ccc(Cl)cc2)C1=O` (stereo not drawn), for which the GI50 is 13.8 µM (inactive) in the assay with A498; 2.39 µM (inactive) with COLO 205; 1.31 µM (inactive) with DLD-1; 5.15 µM (inactive) with EKVX; 6.35 µM (inactive) with HCC 2998; 2.18 µM (inactive) in the assay with HL-60. In addition, the GI50 with KM12 was 1.1 µM (active); in the assay on LOX IMVI it was 0.254 µM (active); with MOLT-4, 2.86 µM (inactive); in the assay on Malme-3M, 14.5 µM (inactive); in the assay on NCI-H23 it was 5.14 µM (inactive); with OVCAR-5, 10.6 µM (inactive). Also, the GI50 in the assay with RPMI-8226 was 1.34 µM (inactive); in the assay on SK-MEL-28, 13.2 µM (inactive); with U-251, 9.75 µM (inactive); in the assay with UACC-62 it was 0.36 µM (active).
`O=C1CCC2(c3ccccc3)Nc3ncccc3N12` (stereo not drawn): the GI50 in the assay on A498, in the assay with COLO 205, with DLD-1, in the assay on EKVX, in the assay on HCC 2998 and in the assay on HL-60 was > 100 µM (inactive) each time. Moreover, the GI50 in the assay with KM12, in the assay with LOX IMVI, in the assay with MOLT-4, in the assay on Malme-3M, in the assay with NCI-H23 and with OVCAR-5 was > 100 µM (inactive) in each case. In addition, the GI50 with RPMI-8226, in the assay on SK-MEL-28, in the assay on U-251 and with UACC-62 was > 100 µM (inactive) in each case.
In the case of `COC(=O)C(CC1=C(O)Nc2ccccc2N1)/C(=N/NC(N)=O)C(=O)Nc1ccccc1C` (stereo not drawn), the GI50 with A498 was > 100 µM (inactive); with COLO 205, 28.5 µM (inactive); with DLD-1, 41.4 µM (inactive); in the assay with EKVX, > 100 µM (inactive); in the assay on HCC 2998, > 100 µM (inactive); with HL-60, > 100 µM (inactive). For the same molecule, the GI50 with KM12 was > 100 µM (inactive); in the assay with LOX IMVI it was 17.8 µM (inactive); in the assay with MOLT-4, > 100 µM (inactive); with Malme-3M it was > 100 µM (inactive); with NCI-H23 it was > 100 µM (inactive); in the assay on OVCAR-5 it was > 100 µM (inactive). In addition, the GI50 with RPMI-8226 is 21 µM (inactive); in the assay with SK-MEL-28 it was 34.7 µM (inactive); with U-251, > 100 µM (inactive); in the assay with UACC-62 it was > 100 µM (inactive).
